According to article doi:10.1101/2023.11.24.568596v1 (biorxiv, 2023):

Assays:
Settings in all cases: binder
MST2 = target: T1, MST2 (Homo sapiens, UniProt Q13188)
T1 sequence (Q13188 1-491): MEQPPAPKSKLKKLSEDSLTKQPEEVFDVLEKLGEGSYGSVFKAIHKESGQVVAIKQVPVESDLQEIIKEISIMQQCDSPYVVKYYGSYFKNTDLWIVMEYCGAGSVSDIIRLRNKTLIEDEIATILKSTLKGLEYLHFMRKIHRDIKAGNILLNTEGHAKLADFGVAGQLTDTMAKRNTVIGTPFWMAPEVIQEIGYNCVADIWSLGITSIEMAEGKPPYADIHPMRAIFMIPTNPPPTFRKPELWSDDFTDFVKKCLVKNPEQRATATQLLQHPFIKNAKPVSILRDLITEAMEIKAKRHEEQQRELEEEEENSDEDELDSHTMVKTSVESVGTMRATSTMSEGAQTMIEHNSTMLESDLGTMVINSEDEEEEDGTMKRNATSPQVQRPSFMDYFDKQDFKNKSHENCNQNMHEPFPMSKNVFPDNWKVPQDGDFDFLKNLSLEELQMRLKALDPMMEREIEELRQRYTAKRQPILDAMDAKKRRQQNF

STLK3 = STLK3 (Homo sapiens, UniProt Q9UEW8)
SRPK1 = SRPK1 (Homo sapiens, UniProt Q96SB4)
Sequence of SRPK1 (Q96SB4 whole entry): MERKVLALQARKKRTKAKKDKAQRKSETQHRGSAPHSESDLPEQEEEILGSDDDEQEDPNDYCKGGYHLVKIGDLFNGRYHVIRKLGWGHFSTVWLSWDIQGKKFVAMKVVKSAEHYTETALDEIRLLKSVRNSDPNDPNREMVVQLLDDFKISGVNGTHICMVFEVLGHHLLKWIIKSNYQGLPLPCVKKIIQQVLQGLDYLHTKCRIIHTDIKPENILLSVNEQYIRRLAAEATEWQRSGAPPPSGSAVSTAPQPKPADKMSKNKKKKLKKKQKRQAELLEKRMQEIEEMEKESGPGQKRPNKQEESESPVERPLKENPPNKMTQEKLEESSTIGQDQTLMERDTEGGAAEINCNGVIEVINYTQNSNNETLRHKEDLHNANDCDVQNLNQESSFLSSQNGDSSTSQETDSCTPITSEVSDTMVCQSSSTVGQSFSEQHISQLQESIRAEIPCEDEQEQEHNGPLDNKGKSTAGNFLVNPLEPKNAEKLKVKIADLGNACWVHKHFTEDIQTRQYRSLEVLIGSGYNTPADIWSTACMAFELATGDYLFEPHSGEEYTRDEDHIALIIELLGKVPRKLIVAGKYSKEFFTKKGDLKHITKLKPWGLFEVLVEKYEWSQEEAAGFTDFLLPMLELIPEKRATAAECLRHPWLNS

VRK1 = target: T2, VRK1 (Homo sapiens, UniProt Q99986)
T2 sequence (Q99986 1-396): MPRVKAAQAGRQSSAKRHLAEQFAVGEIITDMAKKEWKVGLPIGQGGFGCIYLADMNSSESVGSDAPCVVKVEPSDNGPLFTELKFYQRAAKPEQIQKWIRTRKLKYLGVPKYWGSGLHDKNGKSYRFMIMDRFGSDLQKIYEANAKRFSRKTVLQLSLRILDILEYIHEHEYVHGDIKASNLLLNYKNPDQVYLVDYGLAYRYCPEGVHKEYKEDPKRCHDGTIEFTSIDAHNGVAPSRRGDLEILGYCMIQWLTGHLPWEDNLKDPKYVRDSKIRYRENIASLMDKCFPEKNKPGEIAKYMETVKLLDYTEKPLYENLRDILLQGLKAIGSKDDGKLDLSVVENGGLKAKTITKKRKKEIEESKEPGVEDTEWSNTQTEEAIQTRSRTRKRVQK

TLK1 = target: T3, TLK1 (Homo sapiens, UniProt Q9UKI8)
T3 sequence (Q9UKI8 1-766): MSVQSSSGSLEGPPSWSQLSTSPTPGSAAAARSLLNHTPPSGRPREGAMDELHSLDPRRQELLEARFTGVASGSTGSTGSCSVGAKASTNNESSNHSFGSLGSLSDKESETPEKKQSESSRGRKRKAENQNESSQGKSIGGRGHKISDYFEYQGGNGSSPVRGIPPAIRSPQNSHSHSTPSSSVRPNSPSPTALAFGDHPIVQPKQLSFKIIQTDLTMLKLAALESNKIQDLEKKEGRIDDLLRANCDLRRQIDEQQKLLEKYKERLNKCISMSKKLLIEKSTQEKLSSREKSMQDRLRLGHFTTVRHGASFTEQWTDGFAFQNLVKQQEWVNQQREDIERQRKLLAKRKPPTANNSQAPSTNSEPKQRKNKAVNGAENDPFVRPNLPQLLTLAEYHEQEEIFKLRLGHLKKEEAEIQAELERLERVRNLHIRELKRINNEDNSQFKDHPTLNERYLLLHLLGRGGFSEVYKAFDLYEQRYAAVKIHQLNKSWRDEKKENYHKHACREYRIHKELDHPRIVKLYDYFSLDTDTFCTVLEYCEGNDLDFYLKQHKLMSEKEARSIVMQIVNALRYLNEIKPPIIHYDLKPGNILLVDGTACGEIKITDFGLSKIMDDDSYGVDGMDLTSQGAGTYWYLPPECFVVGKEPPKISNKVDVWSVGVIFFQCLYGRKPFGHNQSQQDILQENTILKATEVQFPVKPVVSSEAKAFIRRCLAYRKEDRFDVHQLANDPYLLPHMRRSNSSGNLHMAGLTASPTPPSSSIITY

Wnk1 = Wnk1 (Homo sapiens, UniProt Q9H4A3)
Sequence of Wnk1 (Q9H4A3 whole entry): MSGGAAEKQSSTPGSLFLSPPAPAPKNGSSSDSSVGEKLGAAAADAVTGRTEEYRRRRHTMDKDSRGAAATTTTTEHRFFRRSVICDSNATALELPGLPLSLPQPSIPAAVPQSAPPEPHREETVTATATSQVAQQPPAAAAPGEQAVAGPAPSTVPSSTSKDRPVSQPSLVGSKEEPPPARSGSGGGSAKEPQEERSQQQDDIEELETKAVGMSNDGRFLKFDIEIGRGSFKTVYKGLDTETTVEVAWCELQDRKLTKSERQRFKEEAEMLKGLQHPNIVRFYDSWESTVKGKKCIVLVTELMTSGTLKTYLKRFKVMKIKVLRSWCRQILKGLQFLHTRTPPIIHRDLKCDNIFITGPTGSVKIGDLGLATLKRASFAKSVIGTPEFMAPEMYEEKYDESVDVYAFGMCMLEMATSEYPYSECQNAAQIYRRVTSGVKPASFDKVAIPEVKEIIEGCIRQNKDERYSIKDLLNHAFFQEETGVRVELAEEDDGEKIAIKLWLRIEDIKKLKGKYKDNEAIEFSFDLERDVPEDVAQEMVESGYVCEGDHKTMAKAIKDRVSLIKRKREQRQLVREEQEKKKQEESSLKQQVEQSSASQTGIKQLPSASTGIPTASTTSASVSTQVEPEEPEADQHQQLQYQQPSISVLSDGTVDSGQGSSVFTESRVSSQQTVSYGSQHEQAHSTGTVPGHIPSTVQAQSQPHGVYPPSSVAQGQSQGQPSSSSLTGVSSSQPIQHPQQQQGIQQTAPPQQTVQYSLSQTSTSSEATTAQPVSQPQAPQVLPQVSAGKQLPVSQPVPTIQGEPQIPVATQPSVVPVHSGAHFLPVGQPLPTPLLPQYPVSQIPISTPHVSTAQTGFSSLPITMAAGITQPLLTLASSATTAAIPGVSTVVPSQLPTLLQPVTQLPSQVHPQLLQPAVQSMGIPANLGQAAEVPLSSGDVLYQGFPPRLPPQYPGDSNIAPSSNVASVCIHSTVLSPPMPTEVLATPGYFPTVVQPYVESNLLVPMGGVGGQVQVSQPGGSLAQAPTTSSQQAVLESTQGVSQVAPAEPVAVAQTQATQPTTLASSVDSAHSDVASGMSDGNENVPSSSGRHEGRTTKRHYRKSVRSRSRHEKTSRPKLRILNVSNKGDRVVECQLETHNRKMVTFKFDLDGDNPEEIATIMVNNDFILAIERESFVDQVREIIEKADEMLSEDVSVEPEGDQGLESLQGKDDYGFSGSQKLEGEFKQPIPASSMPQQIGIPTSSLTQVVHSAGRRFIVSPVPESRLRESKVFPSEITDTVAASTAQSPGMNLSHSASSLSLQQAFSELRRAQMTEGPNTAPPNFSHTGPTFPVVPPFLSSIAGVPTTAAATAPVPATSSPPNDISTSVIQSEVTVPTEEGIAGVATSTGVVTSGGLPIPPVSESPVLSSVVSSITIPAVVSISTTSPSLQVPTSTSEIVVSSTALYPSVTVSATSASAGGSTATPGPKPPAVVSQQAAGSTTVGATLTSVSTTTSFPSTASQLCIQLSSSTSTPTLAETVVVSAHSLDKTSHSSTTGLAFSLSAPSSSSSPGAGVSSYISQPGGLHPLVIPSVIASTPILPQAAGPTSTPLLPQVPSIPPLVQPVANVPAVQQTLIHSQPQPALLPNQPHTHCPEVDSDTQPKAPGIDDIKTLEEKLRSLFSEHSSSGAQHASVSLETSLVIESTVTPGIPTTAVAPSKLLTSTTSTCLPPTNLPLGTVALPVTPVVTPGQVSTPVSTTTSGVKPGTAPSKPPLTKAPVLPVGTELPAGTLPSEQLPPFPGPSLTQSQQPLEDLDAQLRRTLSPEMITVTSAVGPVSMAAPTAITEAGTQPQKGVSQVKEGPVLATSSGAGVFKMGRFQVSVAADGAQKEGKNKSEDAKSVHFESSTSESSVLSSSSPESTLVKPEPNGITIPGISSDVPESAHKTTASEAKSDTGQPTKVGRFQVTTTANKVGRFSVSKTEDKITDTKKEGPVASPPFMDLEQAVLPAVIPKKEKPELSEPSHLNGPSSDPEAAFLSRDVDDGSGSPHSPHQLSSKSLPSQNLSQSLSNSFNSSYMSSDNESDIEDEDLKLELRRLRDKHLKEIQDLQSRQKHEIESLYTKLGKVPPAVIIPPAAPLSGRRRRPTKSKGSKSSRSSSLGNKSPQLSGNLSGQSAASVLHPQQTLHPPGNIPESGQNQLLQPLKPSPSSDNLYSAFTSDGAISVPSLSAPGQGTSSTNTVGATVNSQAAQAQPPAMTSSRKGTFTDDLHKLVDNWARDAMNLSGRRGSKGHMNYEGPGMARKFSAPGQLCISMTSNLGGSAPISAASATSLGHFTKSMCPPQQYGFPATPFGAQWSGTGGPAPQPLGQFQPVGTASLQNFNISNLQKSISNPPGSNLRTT

SRC = SRC (Homo sapiens, UniProt P12931)
Sequence of SRC (P12931 whole entry): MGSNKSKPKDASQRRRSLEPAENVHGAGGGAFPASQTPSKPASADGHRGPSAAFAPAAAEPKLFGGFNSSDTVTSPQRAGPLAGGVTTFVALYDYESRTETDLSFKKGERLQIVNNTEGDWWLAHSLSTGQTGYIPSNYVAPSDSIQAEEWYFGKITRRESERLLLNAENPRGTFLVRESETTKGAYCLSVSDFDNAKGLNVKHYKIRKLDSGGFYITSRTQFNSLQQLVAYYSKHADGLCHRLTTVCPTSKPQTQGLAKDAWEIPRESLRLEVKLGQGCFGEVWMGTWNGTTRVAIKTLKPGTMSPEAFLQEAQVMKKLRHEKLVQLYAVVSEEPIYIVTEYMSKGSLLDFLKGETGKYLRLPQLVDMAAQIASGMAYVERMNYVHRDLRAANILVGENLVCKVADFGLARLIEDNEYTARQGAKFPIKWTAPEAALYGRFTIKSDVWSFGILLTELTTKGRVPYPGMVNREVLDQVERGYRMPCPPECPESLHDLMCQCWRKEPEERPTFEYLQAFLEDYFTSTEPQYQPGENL

MST4 = MST4 (Homo sapiens, UniProt Q9P289)
Sequence of MST4 (Q9P289 whole entry): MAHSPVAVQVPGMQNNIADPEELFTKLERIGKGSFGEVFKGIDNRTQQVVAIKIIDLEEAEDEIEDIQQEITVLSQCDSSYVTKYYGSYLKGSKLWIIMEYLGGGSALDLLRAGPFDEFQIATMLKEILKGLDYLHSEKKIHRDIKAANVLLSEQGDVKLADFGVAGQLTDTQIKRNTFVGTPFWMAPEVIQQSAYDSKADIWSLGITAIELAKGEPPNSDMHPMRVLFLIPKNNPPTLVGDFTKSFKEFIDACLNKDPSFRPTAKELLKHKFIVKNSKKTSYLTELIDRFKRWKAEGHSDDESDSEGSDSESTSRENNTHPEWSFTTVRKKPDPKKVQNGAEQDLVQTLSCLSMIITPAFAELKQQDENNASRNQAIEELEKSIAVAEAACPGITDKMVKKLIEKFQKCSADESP

| SMILES | dTm MST2 (MST2) | ΔTm 31 (STLK3) | ΔTm 31 (SRPK1) | ΔTm 31 (VRK1) | ΔTm 31 (TLK1) | ΔTm 31 (Wnk1) | ΔTm 31 (SRC) | dTm MST4 (MST4) | ΔTm 32 (STLK3) | ΔTm 32 (SRPK1) | ΔTm 32 (VRK1) | ΔTm 32 (TLK1) | ΔTm 32 (Wnk1) | ΔTm 32 (SRC) |
| --- | --- | --- | --- | --- | --- | --- | --- | --- | --- | --- | --- | --- | --- | --- |
| Cc1cccc(-c2ccc(-c3cc4cnc(Nc5ccc(O)cc5)nc4n(CCCCN)c3=O)c(Cl)c2)n1 [compound 31, 8-(4-Aminobutyl)-6-(2-chloro-4-(6-methylpyridin-2-yl)phenyl)-2-((4-hydroxyphenyl)amino) pyrido[2,3-d]pyrimidin-7(8H)-one] | 13.7 °C | 16.6 °C | 0.3 °C | 0.9 °C | -1.6 °C | 3.1 °C | 5.0 °C | 15.0 °C | – | – | – | – | – | – |
| Cc1cccc(-c2ccc(-c3cc4cnc(Nc5ccc(C)c(O)c5)nc4n(CCCCN)c3=O)c(Cl)c2)n1 [compound 32, 8-(4-Aminobutyl)-6-(2-chloro-4-(6-methylpyridin-2-yl)phenyl)-2-((3-hydroxy-4-methylphenyl)amino)pyrido[2,3-d]pyrimidin-7(8H)-one] | 13.2 °C | – | – | – | – | – | – | 15.9 °C | 16.6 °C | 0.4 °C | 0.8 °C | -0.8 °C | 3.5 °C | 5.1 °C |
